# Read-outs that look alike come from different tables or passages of the source.
# Key:
# [1] = test system: human vascular endothelial cells (HUEC); experiment: Active oxygen production in endothelial cells under high glucose load; assay type: cell-based; conditions: 30 mM glucose load, control 91.2, glucose alone 140.5
# Procedure: Next, glucose was added to a glucose concentration of 30 mM on each plate, and the cells were CO2 incubated for 1 hour at 37° C. After completion of culture the cells were collected and intracellular active oxygen was measured by FACS Calibur (Flow Cytometry System; Becton Dickinson Japan) using […] (intracellular active oxygen measurement kit; […] Pharma).
# [2] = test system: TNF-α-stimulated mouse peritoneal macrophage; experiment: IL-6 production from TNF-α-stimulated mouse peritoneal macrophage; assay type: cell-based; conditions: 10 ng/mL TNF-α, 24 h
# TNF-α-induced shock mice = experiment: TNF-α-induced shock mouse model: survival; conditions: human TNF-α + D-galactosamine i.p., 20 mg/kg i.v. immediately after, 7 days
# SEB-induced shock mice = conditions: mouse, in vivo
# AAPH-intoxication mice = experiment: AAPH-intoxication mouse model: survival; conditions: male ICR mice, AAPH 125 mg/kg i.p., 7 days
# LPS-induced shock mice = conditions: male ICR mice, LPS 12 mg/kg i.v., 20 mg/kg i.v. 6 h after LPS
# HWEC cells = experiment: IL-8 production in endothelial cells under high glucose load; assay type: cell-based, human; conditions: 30 mM glucose load, 2 h, glucose alone 1196 pg/mL
smiles,measurement,setting,value
"Cc1cc2nc3c(=O)[nH]c(=O)nc-3n(C[C@H](O)[C@H](O)[C@H](O)COP(=O)([O-])O)c2cc1C.[Na+] [5′-FMN-Na, riboflavin-5′-phosphate sodium ester]","fluorescent strength (mean fluorescence), intracellular active oxygen",[1]; 0.1 μg/mL,114.2
same,"fluorescent strength (mean fluorescence), intracellular active oxygen",[1]; 0.39 μg/mL,125.0
same,"fluorescent strength (mean fluorescence), intracellular active oxygen",[1]; 1.56 μg/mL,111.9
same,"fluorescent strength (mean fluorescence), intracellular active oxygen",[1]; 6.25 μg/mL,89.5
same,TNF-α-induced IL-6 production,[2]; 1.56 μg/mL 5′-FMN-Na,suppressed
same,TNF-α-induced IL-6 production,[2]; 25 μg/mL 5′-FMN-Na,suppressed
same,Survival number,TNF-α-induced shock mice; female ICR mice,7/10
same,Survival rate (%),TNF-α-induced shock mice; female ICR mice,70%
same,Survival number,TNF-α-induced shock mice; male BALB/c mice,6/10
same,Survival rate (%),"TNF-α-induced shock mice; male BALB/c mice, P < 0.05 vs. Saline, 20 mg/kg",60%
same,plasma IL-6 concentration,SEB-induced shock mice,suppression effect
same,plasma INF-γ concentration,SEB-induced shock mice,suppression effect
same,plasma MIP-2 concentration,SEB-induced shock mice,suppression effect
same,Survival number,"AAPH-intoxication mice; 20 mg/kg i.p. (−24 h, 0)",7/10
same,Survival rate (%),"AAPH-intoxication mice; 20 mg/kg i.p. (−24 h, 0), P < 0.05 vs. Saline",70%
same,Survival number,"AAPH-intoxication mice; 20 mg/kg i.v. (−24 h, 0, +1 h)",6/10
same,Survival rate (%),"AAPH-intoxication mice; 20 mg/kg i.v. (−24 h, 0, +1 h)",60%
same,plasma GM-CSF concentration,LPS-induced shock mice; 21 h after LPS (second peak),tended to depress
same,plasma MIP-2 concentration,"LPS-induced shock mice; after 9 h, maintained after 21 h",had declined
same,plasma IL-1β concentration,"LPS-induced shock mice; between 9 and 12 h after LPS, vs control",decreased rapidly
same,plasma NO level (total NO2 and NO3),LPS-induced shock mice; between 9 and 18 h,no suppression effect
same,plasma INF-γ concentration,"LPS-induced shock mice; between 9 and 18 h after LPS, vs control",declined rapidly
same,plasma NO level (total NO2 and NO3),LPS-induced shock mice; between 21 and 24 h,had a suppression effect
same,plasma IL-6 concentration,"LPS-induced shock mice; maintained after 21 h, vs control",rapid decline
same,plasma MCP-1 concentration,LPS-induced shock mice; maintained until 21 h after LPS,depressed
same,plasma IL-10 concentration,LPS-induced shock mice; second peak (21 h after LPS),depressed
same,plasma TNF-α concentration,LPS-induced shock mice; second peak (21 h after LPS),depressed
same,IL-8 concentration in the medium,HWEC cells; 6.25 μg/mL,297 pg/mL
same,IL-8 concentration in the medium,HWEC cells; 25 μg/mL,168 pg/mL

# Reference: patent publication US20050208124A1, “Drugs containing riboflavin-type compounds” (priority 2003, published 2005)
